Results taken from PubChem BioAssay (NCI).
Where “and” joins values, the source holds several entries; their conditions need not be identical. Equal values may be shown once.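 Five concentrations, 48 hours, 96-well plates. Here, GI50 denotes the concentration required for 50% inhibition of growth. TGI denotes the concentration required for complete inhibition of growth.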 Where a SMILES comes first, the peptide text is derived from it. Side-chain parts run from the residue outwards. The star is where a group is joined. Cbz = O=C(OCc1ccccc1)*; Boc = CC(C)(C)OC(=O)*

How the values were obtained:
Assay in all cases: inhibition of tumour cell growth, NCI panel, 48 h
786-0 renal = tested on: 786-0 renal
DU-145 prostate = tested on: DU-145 prostate
HCC-2998 colon = tested on: HCC-2998 colon
HOP-92 NSCLC = tested on: HOP-92 NSCLC
HT29 colon = tested on: HT29 colon
MALME-3M melanoma = tested on: MALME-3M melanoma
NCI-H23 lung = tested on: NCI-H23 lung
NCI-H522 lung = tested on: NCI-H522 lung
NCI/ADR-RES ovarian = tested on: NCI/ADR-RES ovarian
OVCAR-4 ovarian = tested on: OVCAR-4 ovarian
PC-3 prostate = tested on: PC-3 prostate
RXF 393 renal = tested on: RXF 393 renal
SF-539 CNS = tested on: SF-539 CNS
T-47D breast = tested on: T-47D breast
TK-10 renal = tested on: TK-10 renal
UACC-257 melanoma = tested on: UACC-257 melanoma
UO-31 renal = tested on: UO-31 renal
A498 renal = tested on: A498 renal
HS 578T breast = tested on: HS 578T breast

SMILES | TGI (786-0 renal) [µM] | TGI (DU-145 prostate) | TGI (HCC-2998 colon) | TGI (HOP-92 NSCLC) | TGI (HT29 colon) [µM] | TGI (MALME-3M melanoma) | TGI (NCI-H23 lung) [µM] | TGI (NCI-H522 lung) | TGI (NCI/ADR-RES ovarian) [µM] | TGI (OVCAR-4 ovarian) | TGI (PC-3 prostate) [µM] | TGI (RXF 393 renal) [µM] | TGI (SF-539 CNS) [µM] | TGI (T-47D breast) [µM] | TGI (TK-10 renal) [µM] | TGI (UACC-257 melanoma) [µM] | TGI (UO-31 renal) [µM] | TGI (A498 renal) [µM] | TGI (HS 578T breast) [µM] | GI50 (HOP-92 NSCLC)
Cc1cc(NS(=O)(=O)c2ccc(NC(=O)c3cccc4c(NNc5ccc(S(N)(=O)=O)cc5)c5ccccc5nc34)cc2)no1 | > 100 | > 100 µM | 92.9 µM | 82 µM | 73.2 | > 100 µM | > 100 | 72.8 µM | > 100 | > 100 µM | > 100 | > 100 | > 100 | > 100 | > 100 | > 100 | > 100 | – | – | –
COC(=O)C(C(=O)C(=O)Nc1ccc(C)cc1C)c1nc2ccc([N+](=O)[O-])cc2[nH]c1=O (stereo not given) | > 100 | – | – | > 100 µM | > 100 | > 100 µM | > 100 | > 100 µM | – | > 100 µM | – | > 100 | > 100 | – | > 100 | > 100 | > 100 | > 100 | – | –
COC(=O)C1=C2Nc3ccccc3C23CCN2C(O)C4(CC5CC67CCOC6CCN6CCC8(c9cccc(OC)c9N(C4)C58O)C67)C4OCCC4(C1)C23 (stereo not given) | 50.5 | > 100 µM | > 100 µM | 87.7 µM | > 100 | > 100 µM | > 100 | > 100 µM | – | > 100 µM | > 100 | > 100 | > 100 | 55.7 | > 100 | > 100 | > 100 | > 100 | 77.5 | –
COc1ccc2c(c1)Cc1c-2[nH]c2cc3c(cc2c1=O)OCO3 | > 100 | – | 51 µM | 48.5 µM | 19.9 | 42.8 µM | 48.2 | 35.1 µM | – | > 100 µM | – | 19.5 | 30.6 | – | 83.3 | – | 89 | – | – | –
COc1ccc(-c2c(C(C)=O)c(-c3ccccc3)n(C3OC(COC(C)=O)C(OC(C)=O)C(OC(C)=O)C3OC(C)=O)c(=S)c2C#N)cc1O (stereo not given) | > 100 | 94.3 µM and > 100 µM | 42 µM and 80.5 µM | 82.5 µM and > 100 µM | > 100 | 40.5 µM and 55.9 µM | > 100 | 35.9 µM and 47.7 µM | > 100 | 98.8 µM and > 100 µM | > 100 | > 100 | – | – | – | > 100 | > 100 | > 100 | > 100 | 43.9 µM and 17.3 µM
C/C(CC(=O)Nc1ccc(NC(=O)/C(C)=N/NS(=O)(=O)c2ccc(C)cc2)cc1)=N\NS(=O)(=O)c1ccc(C)cc1 | > 100 | – | > 100 µM | > 100 µM | > 100 | > 100 µM | > 100 | – | – | – | – | > 100 | > 100 | – | > 100 | > 100 | > 100 | > 100 | – | –
Cc1noc(C)c1N=Nc1ccc2nonc2c1N | > 100 | > 100 µM | > 100 µM | > 100 µM | > 100 | > 100 µM | > 100 | – | > 100 | > 100 µM | > 100 | > 100 | 92.5 | > 100 | > 100 | > 100 | > 100 | – | – | –
Cc1ccc(C(=O)NC(C)C)cc1N=NN(C)C | > 100 | – | > 100 µM | > 100 µM | > 100 | – | > 100 | > 100 µM | – | > 100 µM | – | – | > 100 | – | > 100 | > 100 | > 100 | – | – | –
CC[C@@]1(O)C(=O)OCc2c1cc1n(c2=O)Cc2c-1nc1ccccc1c2/C=N\NC(=O)C(N)=O | 16 | 10.9 µM | > 100 µM | 12.9 µM | > 100 | > 79.3 µM | 3.67 | 46.5 µM | > 73.5 | > 100 µM | > 100 | 37.5 | 0.177 | – | > 100 | > 100 | 12 | 9.81 | > 100 | –
CC(C)CC(NC(=O)OCc1ccccc1)C(=O)NCCCCC(NC(=O)C(CCCCNC(=O)C(CC(C)C)NC(=O)OCc1ccccc1)NC(=O)C(CCCCNC(=O)C(CC(C)C)NC(=O)OCc1ccccc1)NC(=O)C(CCCCNC(=O)C(CC(C)C)NC(=O)OCc1ccccc1)NC(=O)OC(C)(C)C)C(=O)O (stereo not given) (Boc-K([Leu-Cbz])K([Leu-Cbz])K([Leu-Cbz])K([Leu-Cbz])-OH; configuration not given here) | > 25 | > 25 µM | > 25 µM | – | > 25 | > 25 µM | > 25 | > 25 µM | – | > 25 µM | > 25 | – | – | > 25 | > 25 | > 25 | > 25 | > 25 | – | –
C[n+]1c(-c2ccc(/C=N/Nc3n[nH]c(=S)n3N/N=C/c3ccc(-c4cn5ccccc5[n+]4C)cc3)cc2)cn2ccccc21 | > 100 | – | > 100 µM | – | > 100 | – | – | > 100 µM | > 100 | > 100 µM | > 100 | – | > 100 | > 100 | > 100 | > 100 | > 100 | – | > 100 | –
C=CC[C@@]1(C#N)C[C@H](C[C@]2(C#N)C[C@H](CCl)OC(C)(C)O2)OC(C)(C)O1 | > 100 | – | > 100 µM | > 100 µM | > 100 | > 100 µM | > 100 | > 100 µM | – | > 100 µM | – | > 100 | > 100 | – | > 100 | > 100 | > 100 | > 100 | – | –
N=C(N)Cn1cnc2ccccc21 | > 100 | – | > 100 µM | – | – | > 100 µM | > 100 | > 100 µM | – | – | – | > 100 | > 100 | – | > 100 | > 100 | > 100 | > 100 | – | –
COC(=O)NN=C1C(C)(C)C(=NNC(=O)OC)C1(C)C | > 100 | – | > 100 µM | > 100 µM | > 53.6 | > 100 µM | > 78.1 | > 100 µM | – | > 100 µM | – | > 100 | > 100 | – | > 100 | > 100 | > 100 | > 100 | – | –
